e = 2'-O-(2-methoxyethyl) (MOE); d = 2'-deoxy (DNA)
How the values were obtained:
[1] = Plasma cholesterol and triglyceride levels in huApoB/huCETP/mLDLr mouse model (Example 7); format: in vivo, mice
Excerpt: The huApoB^+/−huCETP^+/−mLDLr^+/− mice were divided into five groups of 5-7 mice each. […] The saline-injected group served as the control group to which oligonucleotide-treated groups were compared. […] This group served a negative control for the effects of the antisense oligonucleotides against CETP. The groups are further described in Table 27, and are designated letters A-F, by which they will be referred from henceforth.
HDL and LDL cholesterol were individually measured by HPLC. Triglyceride levels were measured on weeks 0, 3 and 6 with the use of a commercially available triglyceride kit (DCL Triglyceride Reagent; Diagnostic Chemicals Ltd.).

CETP activity = CETP activity assay kit, dose response (Example 9); format: in vivo, human; settings: huCETP transgenic mice, Western diet, s.c. 6 weeks
Experimental: Another group received subcutaneous injections of control oligonucleotide ISIS 141923 at a dose of 50 mg/kg/week for 6 weeks. One group of mice received subcutaneous injections of PBS for 6 weeks. The PBS-injected group served as the control group to which treatment groups were compared.
CETP activity levels were measured using a CETP activity assay kit (Roar Biomedical Inc.).

[2] = Body and organ weights of huCETP transgenic mice (Example 5); format: in vivo; settings: 50 mg/kg i.p. twice per week
Experimental: (§1) The mice were divided into five treatment groups. The first four groups received intraperitoneal injections of ISIS 349511, ISIS 349512, ISIS 349515, or ISIS 349517 at a dose of 50 mg/kg twice per week for 6 weeks. The fifth group received intraperitoneal injections of saline twice weekly for 6 weeks.
The body weights of the mice were measured pre-dose and regularly during the treatment period. The body weights are presented in Table 10, and are expressed in grams.

[3] = Plasma cholesterol and triglyceride levels (Example 6); format: in vivo, mice; settings: 50 mg/kg s.c. twice per week
Excerpt: The normal chow-fed mice were divided into three treatment groups. The cholesterol-enriched chow-fed mice were divided into three treatment groups. […] One chow-fed group and one cholesterol-enriched chow-fed group received subcutaneous injections of saline twice weekly for 6 weeks. The saline-injected groups served as the control groups to which the corresponding oligonucleotide-treated groups were compared.
Plasma cholesterol were extracted at weeks 3 and 6 by the method of Bligh and Dyer (Bligh, E. G. and Dyer, W. J. Can. J. Biochem. Physiol. 37: 911-917, 1959) and measured on weeks 0, 3 and 6 with an Olympus clinical analyzer (Hitachi Olympus AU400e, Melville, N.Y.). HDL, LDL and VLDL cholesterol were individually measured by HPLC. Triglyceride levels were measured on weeks 0, 3 and 6 with the use of a commercially available triglyceride kit (DCL Triglyceride Reagent; Diagnostic Chemicals Ltd.). VLDL levels were measured on week 6. The results are presented in Tables 22-26 and are expressed in mg/dL.

CETP protein = assay: Plasma CETP protein by ELISA in huCETP transgenic mice (Example 5); format: in vivo, human; settings: normal chow, 50 mg/kg i.p. twice per week for 6 weeks, compared to PBS control
Experimental: as §1
Plasma levels of CETP protein were measured by ELISA (Alpco, N.H.). […] The results are expressed as percentage inhibition compared to the PBS control.

[4] = huApoB+/−huCETP+/−mLDLr+/− mice (Groups B-E), ASO 25 mg/kg s.c. twice/week, Week 0
[5] = huApoB+/−huCETP+/−mLDLr+/− mice (Groups B-E), ASO 25 mg/kg s.c. twice/week, Week 3
[6] = huApoB+/−huCETP+/−mLDLr+/− mice (Groups B-E), ASO 25 mg/kg s.c. twice/week, Week 6
[7] = huApoB+/−huCETP−/−mLDLr+/− mice (Group F), 25 mg/kg s.c. twice/week, Week 0
[8] = huApoB+/−huCETP−/−mLDLr+/− mice (Group F), 25 mg/kg s.c. twice/week, Week 3
[9] = huApoB+/−huCETP−/−mLDLr+/− mice (Group F), 25 mg/kg s.c. twice/week, Week 6

ISIS 141923: CCTTCCCTGAAGGTTCCTCC, 5-10-5 MOE gapmer, a control oligonucleotide which has no known murine target (sugars from the 5' end e5 d10 e5, backbone and methylation of C not given here) [reference compound]
% HDL/total cholesterol [1, 4]: 25%
HDL cholesterol levels [1, 4]: 50 mg/dL
LDL cholesterol levels [1, 4]: 123 mg/dL
Total cholesterol levels [1, 4]: 201 mg/dL
Triglyceride levels [1, 4]: 137 mg/dL
% HDL/total cholesterol [1, 5]: 24%
HDL cholesterol levels [1, 5]: 55 mg/dL
LDL cholesterol levels [1, 5]: 149 mg/dL
Total cholesterol levels [1, 5]: 228 mg/dL
Triglyceride levels [1, 5]: 177 mg/dL
% HDL/total cholesterol [1, 6]: 31%
HDL cholesterol levels [1, 6]: 74 mg/dL
LDL cholesterol levels [1, 6]: 150 mg/dL
Total cholesterol levels [1, 6]: 235 mg/dL
Triglyceride levels [1, 6]: 192 mg/dL
Percent inhibition of CETP activity (CETP activity; Dose 50 mg/kg/wk): 2%

ISIS 349511: 5-10-5 MOE gapmer CCCGACCTCCTTGGAGACTT (sugars from the 5' end e5 d10 e5, backbone and methylation of C not given here)
Body weights ([2]; Week 0): 19 grams
Body weights ([2]; Week 1): 21 grams
Body weights ([2]; Week 2): 23 grams
Body weights ([2]; Week 4): 25 grams
Body weights ([2]; week 6): 26 grams
Organ weights, Kidney ([2]; week 6): 312.5 mg
Organ weights, Liver ([2]; week 6): 1.3 g
Organ weights, Spleen ([2]; week 6): 76.0 mg
% HDL/total cholesterol [1, 4]: 24%
HDL cholesterol levels [1, 4]: 49 mg/dL
LDL cholesterol levels [1, 4]: 129 mg/dL
Total cholesterol levels [1, 4]: 208 mg/dL
Triglyceride levels [1, 4]: 145 mg/dL
% HDL/total cholesterol [1, 5]: 30%
HDL cholesterol levels [1, 5]: 64 mg/dL
LDL cholesterol levels [1, 5]: 126 mg/dL
Total cholesterol levels [1, 5]: 212 mg/dL
Triglyceride levels [1, 5]: 199 mg/dL
% HDL/total cholesterol [1, 6]: 35%
HDL cholesterol levels [1, 6]: 77 mg/dL
LDL cholesterol levels [1, 6]: 132 mg/dL
Total cholesterol levels [1, 6]: 223 mg/dL
Triglyceride levels [1, 6]: 248 mg/dL
HDL cholesterol levels ([3]; Cholesterol chow, Week 0): 51 mg/dL
LDL cholesterol levels ([3]; Cholesterol chow, Week 0): 179 mg/dL
Total cholesterol levels ([3]; Cholesterol chow, Week 0): 252 mg/dL
Triglyceride levels ([3]; Cholesterol chow, Week 0): 101 mg/dL
HDL cholesterol levels ([3]; Cholesterol chow, Week 3): 85 mg/dL
LDL cholesterol levels ([3]; Cholesterol chow, Week 3): 576 mg/dL
Total cholesterol levels ([3]; Cholesterol chow, Week 3): 714 mg/dL
Triglyceride levels ([3]; Cholesterol chow, Week 3): 94 mg/dL
HDL cholesterol levels ([3]; Cholesterol chow, Week 6): 136 mg/dL
LDL cholesterol levels ([3]; Cholesterol chow, Week 6): 558 mg/dL
Total cholesterol levels ([3]; Cholesterol chow, Week 6): 809 mg/dL
Triglyceride levels ([3]; Cholesterol chow, Week 6): 99 mg/dL
VLDL cholesterol levels ([3]; Cholesterol chow, Week 6): 115 mg/dL
HDL cholesterol levels ([3]; Normal chow, Week 0): 51 mg/dL
LDL cholesterol levels ([3]; Normal chow, Week 0): 176 mg/dL
Total cholesterol levels ([3]; Normal chow, Week 0): 254 mg/dL
Triglyceride levels ([3]; Normal chow, Week 0): 80 mg/dL
HDL cholesterol levels ([3]; Normal chow, Week 3): 56 mg/dL
LDL cholesterol levels ([3]; Normal chow, Week 3): 148 mg/dL
Total cholesterol levels ([3]; Normal chow, Week 3): 227 mg/dL
Triglyceride levels ([3]; Normal chow, Week 3): 90 mg/dL
HDL cholesterol levels ([3]; Normal chow, Week 6): 98 mg/dL
LDL cholesterol levels ([3]; Normal chow, Week 6): 178 mg/dL
Total cholesterol levels ([3]; Normal chow, Week 6): 327 mg/dL
Triglyceride levels ([3]; Normal chow, Week 6): 101 mg/dL
VLDL cholesterol levels ([3]; Normal chow, Week 6): 50 mg/dL
Percent inhibition of plasma CETP protein levels (CETP protein): 75%

ISIS 349517: 5-10-5 MOE gapmer CAGCACTTTAATGCCAGTGG (sugars from the 5' end e5 d10 e5, backbone and methylation of C not given here)
Body weights ([2]; Week 0): 25 grams
Body weights ([2]; Week 1): 27 grams
Body weights ([2]; Week 2): 28 grams
Body weights ([2]; Week 4): 28 grams
Body weights ([2]; week 6): 29 grams
Organ weights, Kidney ([2]; week 6): 355.5 mg
Organ weights, Liver ([2]; week 6): 1.7 g
Organ weights, Spleen ([2]; week 6): 89.0 mg
% HDL/total cholesterol [1, 4]: 25%
HDL cholesterol levels [1, 4]: 48 mg/dL
LDL cholesterol levels [1, 4]: 116 mg/dL
Total cholesterol levels [1, 4]: 193 mg/dL
Triglyceride levels [1, 4]: 142 mg/dL
% HDL/total cholesterol [1, 5]: 40%
HDL cholesterol levels [1, 5]: 68 mg/dL
LDL cholesterol levels [1, 5]: 87 mg/dL
Total cholesterol levels [1, 5]: 171 mg/dL
Triglyceride levels [1, 5]: 177 mg/dL
% HDL/total cholesterol [1, 6]: 37%
HDL cholesterol levels [1, 6]: 72 mg/dL
LDL cholesterol levels [1, 6]: 109 mg/dL
Total cholesterol levels [1, 6]: 197 mg/dL
Triglyceride levels [1, 6]: 210 mg/dL
% HDL/total cholesterol [1, 7]: 41%
HDL cholesterol levels [1, 7]: 65 mg/dL
LDL cholesterol levels [1, 7]: 73 mg/dL
Total cholesterol levels [1, 7]: 158 mg/dL
Triglyceride levels [1, 7]: 150 mg/dL
% HDL/total cholesterol [1, 8]: 37%
HDL cholesterol levels [1, 8]: 65 mg/dL
LDL cholesterol levels [1, 8]: 91 mg/dL
Total cholesterol levels [1, 8]: 175 mg/dL
Triglyceride levels [1, 8]: 213 mg/dL
% HDL/total cholesterol [1, 9]: 42%
HDL cholesterol levels [1, 9]: 75 mg/dL
LDL cholesterol levels [1, 9]: 95 mg/dL
Total cholesterol levels [1, 9]: 177 mg/dL
Triglyceride levels [1, 9]: 201 mg/dL
Percent inhibition of CETP activity (CETP activity; Dose 1.5 mg/kg/wk): 33%
Percent inhibition of CETP activity (CETP activity; Dose 5 mg/kg/wk): 59%
Percent inhibition of CETP activity (CETP activity; Dose 15 mg/kg/wk): 76%
Percent inhibition of CETP activity (CETP activity; Dose 50 mg/kg/wk): 77%
HDL cholesterol levels ([3]; Cholesterol chow, Week 0): 49 mg/dL
LDL cholesterol levels ([3]; Cholesterol chow, Week 0): 134 mg/dL
Total cholesterol levels ([3]; Cholesterol chow, Week 0): 201 mg/dL
Triglyceride levels ([3]; Cholesterol chow, Week 0): 84 mg/dL
HDL cholesterol levels ([3]; Cholesterol chow, Week 3): 78 mg/dL
LDL cholesterol levels ([3]; Cholesterol chow, Week 3): 597 mg/dL
Total cholesterol levels ([3]; Cholesterol chow, Week 3): 739 mg/dL
Triglyceride levels ([3]; Cholesterol chow, Week 3): 107 mg/dL
HDL cholesterol levels ([3]; Cholesterol chow, Week 6): 122 mg/dL
LDL cholesterol levels ([3]; Cholesterol chow, Week 6): 486 mg/dL
Total cholesterol levels ([3]; Cholesterol chow, Week 6): 695 mg/dL
Triglyceride levels ([3]; Cholesterol chow, Week 6): 102 mg/dL
VLDL cholesterol levels ([3]; Cholesterol chow, Week 6): 88 mg/dL
HDL cholesterol levels ([3]; Normal chow, Week 0): 53 mg/dL
LDL cholesterol levels ([3]; Normal chow, Week 0): 162 mg/dL
Total cholesterol levels ([3]; Normal chow, Week 0): 237 mg/dL
Triglyceride levels ([3]; Normal chow, Week 0): 66 mg/dL
HDL cholesterol levels ([3]; Normal chow, Week 3): 64 mg/dL
LDL cholesterol levels ([3]; Normal chow, Week 3): 146 mg/dL
Total cholesterol levels ([3]; Normal chow, Week 3): 238 mg/dL
Triglyceride levels ([3]; Normal chow, Week 3): 97 mg/dL
HDL cholesterol levels ([3]; Normal chow, Week 6): 100 mg/dL
LDL cholesterol levels ([3]; Normal chow, Week 6): 220 mg/dL
Total cholesterol levels ([3]; Normal chow, Week 6): 375 mg/dL
Triglyceride levels ([3]; Normal chow, Week 6): 91 mg/dL
VLDL cholesterol levels ([3]; Normal chow, Week 6): 55 mg/dL
Percent inhibition of plasma CETP protein levels (CETP protein): 86%

Source: patent publication US20130053430A1, “MODULATION OF CETP EXPRESSION” (Isis Pharmaceuticals, Inc., priority 2010, published 2013)
